From patent publication US20020044933A1, “Inhibition of intimal hyperplasia using antibodies to PDGF receptors” (priority 1993, published 2002)

Key:
[1] = test system: rat smooth muscle cells; experiment: Inhibition of PDGF-BB binding to rat smooth muscle cells
[2] = test system: baboon smooth muscle cells; experiment: Inhibition of PDGF mitogenic activity on baboon smooth muscle cells by non-peptidic antagonists; assay type: cell-based

SMILES	inhibition of binding of PDGF-BB to rat smooth muscle cells [1]	inhibition of PDGF-BB mitogenic activity on baboon smooth muscle cells [2]	inhibition of PDGF mitogenic activity on baboon smooth muscle cells [2]	inhibition of PDGF mitogenic activity on baboon smooth muscle cells in the presence of heparin ([2]; with heparin)
O=C(/C=C/c1ccccc1)OC1C=CC2COC(=O)C2C1C(=O)O (stereo not shown) [92-0825]	inhibit binding	inhibit PDGF-BB mitogenic activity		
CC1CCCC=CC2CC(O)CC2C(O)C=CC(=O)O1 (stereo not shown) [Brefeldin A, 1,6,7,8,9,11a,12,13,14,14a-Decahydro-1,13-dihydroxy-6-methyl-4H-cyclopent[f]oxacyclotridecin-4-one]			inhibit	enhanced
